Patent US10160780B2, “Compound extracted from husk and fruit stem of Xanthoceras sobifolia and its extracting method and use thereof” (priority 2004, dated 2018)
In brackets after ≈: the same amount, converted by molar mass. Read-outs that look alike come from different tables or passages of the source.

Columns and labels:
mice [1] = test: Y maze test of learning and memory ability of mice; format: in vivo; conditions: fed 9 mg/kg, Y maze after 40 minutes, incorrect alternations before 10 continuous correct choices
Method: 20 female and male mice weighted 18˜23 g were selected and divided evenly into two groups. The treatment group was fed with total dose of Xanthoceraside at the ratio of 9 mg/kg mice weight, and the control group was fed with the same amount of normal saline. After 40 minutes, they were put into Y maze respectively for performance observation. The number of incorrect alternations for a mice were recorded before it made correct choices continuously for 10 times. If errors more than 30, cutting the value to 30.

HL-60 human leukemia = test: anti-tumor activity in vitro, MTT; format: cell-based
Text: (§1) Take Xanthoceraside derived from the example 3 to do a test on tumor cell in vitro.

Hela cervical cancer = test: anti-tumor activity in vitro, SRB; format: cell-based, human
Text: as §1

mice [2] = test: regular static hypoxia tolerance in an isolated environment (death time); format: in vivo; conditions: oral 2 mg twice a day for 6 days
Method: The above obtained Xanthoceraside was for the test of regular static hypoxia tolerance in an isolated environment to observe the effect of Xanthoceraside on death time of animals.
The test consisted of two sections. Each section was divided into two groups: control and treatment. There were three measurements to calculate death time of the mice. Those in treatment group took oral dosing of 2 mg of Xanthoceraside twice a day for 6 days. The three parameters are: • The average death time of whole group (xt); • The super average death time (xp): based on the average death time of the control group (xc), calculate the death time (xp), which is greater than the control group (xc), and calculate the mean. • The delayed death time (xp-xc): the super average death time (xp) minus the control group (xc) and calculated the mean.

[3] = system: MDA-MB-435 human breast cancer; test: anti-tumor activity in vitro, SRB; format: cell-based; conditions: MDA-MB-435, SRB
Text: as §1

[4] = system: Bel-7402 human liver cancer; test: anti-tumor activity in vitro, SRB; format: cell-based; conditions: Bel-7402, SRB
Text: as §1

[5] = system: PC-3MIE8 human prostate cancer; test: anti-tumor activity in vitro, SRB; format: cell-based; conditions: PC-3MIE8, SRB
Text: as §1

[6] = system: BGC-823 human gastric cancer; test: anti-tumor activity in vitro, SRB; format: cell-based; conditions: BGC-823, SRB
Text: as §1

mice [7] = test: Y maze test, memory retrieval impairment of mice induced by scopolamine; format: in vivo; conditions: scopolamine 2.0 mg/kg, then injection 6 mg/kg, Y maze after 20 minutes
Method: Mice were trained based on the stochastic three arms Y maze test, to screen those who had less than 30 errors of alternation before they continuously made correct choices for 10 times. After relaxed for 24 hours, the selected ones were randomized into two groups and for all of them scopolamine was injected into celiac at the ratio of 2.0 mg/kg mice weight to cause their learning and memory impairment. After 15 minutes, the mice in the treatment group were given an injection of total dose of Xanthoceraside at ratio of 6 mg/kg mice weight, while those in the control group were given an injection of the same amount of normal saline. After 20 minutes, they were arranged respectively into Y maze and the number of incorrect alternations before they made correct choices continuously for 10 times.

Compound: C/C=C(/C)C(=O)O[C@H]1[C@H](OC(=O)/C(C)=C\C)C2(CO)C(CC1(C)C)C1=CCC3[C@@]4(C)CC[C@H](OC5OC(C(=O)O)C(O)C(OC6OC(CO)C(O)C6O)C5OC5OC(CO)C(O)C(O)C5O)C(C)(C)C4CC[C@@]3(C)[C@]1(C)[C@@H](O)[C@H]2O (stereo partly drawn) [Xanthoceraside, 3-O-(α-L-arabinofuranosyl(1→3)-β-D-galactopyranosyl(1→2))-β-D-glucuronopyranosyl-21,22-diangeloyl-R1-barrigenol]
- Error frequency (X ± SD) (mice [1]): 6.9 ± 2.3
- IC50 (HL-60 human leukemia; HL-60, MTT): 41.29 µg/mL (≈ 36.2 µM)
- Inhibition ratio (%) (HL-60 human leukemia; HL-60, MTT, 0.5 μg/ml): 9.34%
- Inhibition ratio (%) (HL-60 human leukemia; HL-60, MTT, 5.0 μg/ml): 17.68%
- Inhibition ratio (%) (HL-60 human leukemia; HL-60, MTT, 50.0 μg/ml): 56.90%
- IC50 (HL-60 human leukemia; Homo sapiens, HL-60, HL-60, MTT, read-out: IC50): 41.9 µg/mL (≈ 36.7 µM)
- Inhibition ratio (%) (Hela cervical cancer; 0.5 μg/ml): −12.72%
- Inhibition ratio (%) (Hela cervical cancer; 5.0 μg/ml): −4.05%
- Inhibition ratio (%) (Hela cervical cancer; 50.0 μg/ml): 95.49%
- IC50 (Hela cervical cancer; Homo sapiens): 34.2 µg/mL (≈ 30 µM)
- xp − xc, delayed death time (mice [2]; First section): 14.59 ± 14.83(17) min
- xp, super average death time (mice [2]; First section): 56.51 ± 14.59(17) min
- xt, average death time of whole group (mice [2]; First section): 41.84 ± 15.35(30) min
- xp − xc, delayed death time (mice [2]; Second section): 8.40 ± 4.94(33) min
- xp, super average death time (mice [2]; Second section): 33.40 ± 4.94(33) min
- xt, average death time of whole group (mice [2]; Second section): 31.55 ± 6.68(41) min
- IC50 ([3]; Homo sapiens): 18.6 µg/mL (≈ 16.3 µM)
- Inhibition ratio (%) ([3]; 0.5 μg/ml): −4.50%
- Inhibition ratio (%) ([3]; 5.0 μg/ml): 2.92%
- Inhibition ratio (%) ([3]; 50.0 μg/ml): 93.14%
- Inhibition ratio (%) ([4]; 0.5 μg/ml): −9.78%
- Inhibition ratio (%) ([4]; 5.0 μg/ml): −1.24%
- Inhibition ratio (%) ([4]; 50.0 μg/ml): 92.96%
- IC50 ([4]; Homo sapiens): 39.3 µg/mL (≈ 34.5 µM)
- IC50 ([5]; Homo sapiens): 41 µg/mL (≈ 35.9 µM)
- Inhibition ratio (%) ([5]; 0.5 μg/ml): −13.90%
- Inhibition ratio (%) ([5]; 5.0 μg/ml): −7.63%
- Inhibition ratio (%) ([5]; 50.0 μg/ml): 92.03%
- Inhibition ratio (%) ([6]; 0.5 μg/ml): −11.71%
- Inhibition ratio (%) ([6]; 5.0 μg/ml): −5.92%
- Inhibition ratio (%) ([6]; 50.0 μg/ml): 92.45%
- IC50 ([6]; Homo sapiens): 40.2 µg/mL (≈ 35.3 µM)
- Error frequency (X ± SD) (mice [7]): 4.0 ± 1.5
